The assay deals with HSF1. The assay is described as follows: EGS cross-linking and Western blot of HSF1 oligomeric forms in HepG2 cells. Type of assay: cell-based, human. To be noted: ALLN 40 μg/ml, 2 hours at 37° C., EGS cross-linking. As to the method: FIGS. 6A-6B: ALLN affects the trimerization of HSF. HepG2 cells were treated with serum-free MEM containing 1.5% BSA for 2 hours at 37° C. without any additions (lane1), at 37 ° C. but containing 40μg/ml of ALLN in the medium (lane2), at 37° C. in a medium containing both ALLN and 50 μg/ml of cycloheximide (lane3) , at 42° C. alone (lane4), or at 42° C. plus cycloheximide in the medium (lane5). Cell lysates were prepared as described under Experimental Details. The lysates were either directly run on the SDS-PAGE (A) to show the steady-state protein levels of HSF1 or subjected to cross-linking with ethylene glycol bis sucrinimidylsuccinate (EGS) before running the gel (B) to show the oligomeric forms of HSF1. The proteins were then transfered to a nitrocellulose membrane and immunoblotted with anti-human HSF1 antibody. Arrows on the right side indicates the monomeric, dimeric or trimeric forms of HSF1, respectively. This experiment was repeated three times with identical results.
For measurement of the steady-state HSF1 protein levels, whole cell extracts were prepared by lysing the cells directly with 2×SDS-sample buffer (Maniatis, et al., 1982). For chemical cross-linking experiments, whole-cell extracts were prepared as described (Mosser, et al., 1988). Briefly, the cold PBS-washed cell pellets were quickly and repeatedly frozen in liquid nitrogen. […]
(A western blot detects proteins with antibodies after separation by electrophoresis.)

SMILES strings stand for the structures. Square brackets hold non-standard residues; d marks the D form. Peptide text beside a SMILES is read from it. Nle = CCCC[C@H](N)C(=O)O

For `CCCC[C@@H](C=O)NC(=O)[C@H](CC(C)C)NC(=O)[C@H](CC(C)C)NC(C)=O` [ALLN, N-acetyl-leucyl-leucyl-norleucinal] (Ac-Leu-Leu-[Nle]-aldehyde), the “Oligomeric form of HSF1 (270-kDa cross-linked product)” value is “trimer”.

The values are drawn from patent publication US5942494A, “Stimulation of gene expression and synthesis of heat shock protein 72/73 (HSP 70)” (The Trustees of Columbia University in the City of New York, priority 1996, dated 1999).
